Experimental data as given in patent publication US10933051B2, “Carbapenem compounds and compositions for the treatment of bacterial infections” (FOB Synthesis, Inc., priority 2017, dated 2021).

Assays:
Assay in all cases: Antimicrobial Susceptibility Test (CLSI), Test Example 2
Format in all cases: cell-based
Set-up in all cases: unit not given here
E. coli FSEco-054 = settings: Table 4; strain produces ESBL
Method: (§1) Antimicrobial Susceptibility Test was performed by the CLSI (Clinical and Laboratory Standards Institute) methods. The agar dilution method for determining antimicrobial susceptibility was carried out using Mueller Hinton-II agar and the amount of inoculation was 10^4CFU/spot. Broth dilution tests were performed using the Mueller Hinton-II broth. All assays were run with the indicated control strains, available from the ATCC (American Type Culture Collection, Rockville, Md.).

A. baumannii FSAb-039 = settings: Table 4; strain produces OXA-51
Method: as §1

A. baumannii FSAb-056 = settings: Table 4; strain produces OXA-23, OXA-51
Method: as §1

A. baumannii FSAb-029 = settings: Table 4; strain produces OXA-2, IMP-1
Method: as §1

P. aeruginosa FSPa-121 = settings: Table 4; strain produces OXA-17
Method: as §1

A. baumannii FSAb-065 = settings: Table 4; strain produces OXA-2, VIM-2
Method: as §1

[1] = test system: K. pneumoniae ATCC BAA-1904; settings: Table 4; strain produces KPC-3
Method: as §1

SMILES | antimicrobial susceptibility, E. coil FSEco-054 (E. coli FSEco-054) | antimicrobial susceptibility, A. baumannii FSAb-039 (A. baumannii FSAb-039) | antimicrobial susceptibility, A. baumannii FSAb-056 (A. baumannii FSAb-056) | antimicrobial susceptibility, A. baumannii FSAb-029 (A. baumannii FSAb-029) | antimicrobial susceptibility, P. aeruginosa FSPa-121 (P. aeruginosa FSPa-121) | antimicrobial susceptibility, A. baumannii FSAb-065 (A. baumannii FSAb-065) | antimicrobial susceptibility, K. pneumoniae BAA-1904 [1]
C[C@@H](O)[C@H]1C(=O)N2C(C(=O)O)=C(CN(C)CCNC(=O)c3ccc(O)c(O)c3F)[C@H](C)[C@H]12 [Compound 2] | 2 | 4 | 2 | 2 | 2 | 2 | 16
C[C@@H](O)[C@H]1C(=O)N2C(C(=O)O)=C(CN(C)CCNC(=O)c3ccc(O)c(O)c3C(F)(F)F)[C@H](C)[C@H]12 [Compound 3] | 4 | 4 | 4 | 4 | 4 | 2 | 32
Cc1c(C(=O)NCCN(C)CC2=C(C(=O)O)N3C(=O)[C@H]([C@@H](C)O)[C@H]3[C@H]2C)ccc(O)c1O [Compound 4] | 8 | 8 | 8 | 8 | 8 | 4 | 16
C[C@@H](O)[C@H]1C(=O)N2C(C(=O)O)=C(CN(C)CCNC(=O)c3cc(O)c(O)c(F)c3)[C@H](C)[C@H]12 [Compound 7] | 2 | 4 | 2 | 2 | 2 | 2 | 16
C[C@@H](O)[C@H]1C(=O)N2C(C(=O)O)=C(CN(C)CCNC(=O)c3ccc(O)cc3)[C@H](C)[C@H]12 [Compound 10] | >32 | >32 | 16 | 16 | >32 | 16 | 8
C[C@@H](O)[C@H]1C(=O)N2C(C(=O)O)=C(CN(C)CCNC(=O)c3cccc(O)c3Cl)[C@H](C)[C@H]12 [Compound 11] | >32 | >32 | 32 | 32 | >32 | 32 | 8
C[C@@H](O)[C@H]1C(=O)N2C(C(=O)O)=C(CN(C)CCNC(=O)c3cccc(O)c3F)[C@H](C)[C@H]12 [Compound 12] | >32 | >32 | 32 | 32 | >32 | 32 | 4
C[C@@H](O)[C@H]1C(=O)N2C(C(=O)O)=C(CN(C)CCNC(=O)c3ccccc3Cl)[C@H](C)[C@H]12 [Compound 13] | >32 | >32 | 32 | 32 | >32 | 16 | 8
C[C@@H](O)[C@H]1C(=O)N2C(C(=O)O)=C(CN(C)CCNC(=O)c3ccc(Cl)cc3)[C@H](C)[C@H]12 [Compound 14] | >32 | >32 | >32 | >32 | >32 | >32 | 16
C[C@@H](O)[C@H]1C(=O)N2C(C(=O)O)=C(CN(C)CCNC(=O)c3ccc(OC(=O)C(C)(C)C)c(OC(=O)C(C)(C)C)c3Cl)[C@H](C)[C@H]12 [Compound 16] | 8 | 8 | 8 | 4 | 8 | 8 | >32
C[C@@H](O)[C@H]1C(=O)N2C(C(=O)O)=C(CN(C)CCCNC(=O)c3ccc(O)c(O)c3Cl)[C@H](C)[C@H]12 [Compound 17] | 2 | 8 | 4 | 2 | 4 | 2 | 32
C[C@@H](O)[C@H]1C(=O)N2C(C(=O)O)=C(CN(C)CC(NC(=O)c3ccc(O)c(O)c3Cl)C(N)=O)[C@H](C)[C@H]12 (some centres unmarked) [Compound 18] | 2 | 4 | 4 | 8 | 2 | 1 | 16
C[C@@H](O)[C@H]1C(=O)N2C(C(=O)O)=C(CN(C)CC(=O)NCc3ccc(O)c(O)c3Cl)[C@H](C)[C@H]12 [Compound 21] | 4 | 8 | 8 | 8 | 2 | 2 | 8
C[C@@H](O)[C@H]1C(=O)N2C(C(=O)O)=C(CN3CC[C@H](NC(=O)c4ccc(OCc5ccccc5)c(OCc5ccccc5)c4Cl)C3)[C@H](C)[C@H]12 [Compound 28] | 2 | 8 | 4 | 0.5 | 2 | 0.5 | >32
C[C@@H](O)[C@H]1C(=O)N2C(C(=O)O)=C(CN3CC[C@@H](NC(=O)c4ccc(O)c(O)c4Cl)C3)[C@H](C)[C@H]12 [Compound 29] | 2 | 8 | 4 | 1 | 2 | 1 | >32
C[C@@H](O)[C@H]1C(=O)N2C(C(=O)O)=C(CN3C[C@H](NC(=O)c4ccc(O)c(O)c4Cl)[C@@H](O)C3)[C@H](C)[C@H]12 [Compound 30] | 2 | 4 | 4 | 2 | 2 | 0.5 | 16
C[C@@H](O)[C@H]1C(=O)N2C(C(=O)O)=C(CN3C[C@@H](O)[C@H](NC(=O)c4ccc(O)c(O)c4Cl)C3)[C@H](C)[C@H]12 [Compound 31] | 2 | 4 | 4 | 2 | 2 | 0.5 | 32
C[C@@H](O)[C@H]1C(=O)N2C(C(=O)O)=C(CN3CC(NC(=O)c4ccc(O)c(O)c4F)[C@@H](O)C3)[C@H](C)[C@H]12 (some centres unmarked) [Compound 36] | 4 | 4 | 8 | 4 |  |  | 32
C[C@@H](O)[C@H]1C(=O)N2C(C(=O)[O-])=C(C[N+](C)(C)CCNC(=O)c3ccc(O)c(O)c3F)[C@H](C)[C@H]12 [Compound 41] | 4 | 16 | 32 | 8 |  |  | 8
C[C@@H](O)[C@H]1C(=O)N2C(C(=O)[O-])=C(C[N+]3(CCNC(=O)c4ccc(O)c(O)c4F)CCCC3)[C@H](C)[C@H]12 [Compound 42] | 2 | 8 | 16 | 4 |  |  | 16
